Molecules are shown by their SMILES.

Sequence of human GPR119 (Q8TDV5 whole entry): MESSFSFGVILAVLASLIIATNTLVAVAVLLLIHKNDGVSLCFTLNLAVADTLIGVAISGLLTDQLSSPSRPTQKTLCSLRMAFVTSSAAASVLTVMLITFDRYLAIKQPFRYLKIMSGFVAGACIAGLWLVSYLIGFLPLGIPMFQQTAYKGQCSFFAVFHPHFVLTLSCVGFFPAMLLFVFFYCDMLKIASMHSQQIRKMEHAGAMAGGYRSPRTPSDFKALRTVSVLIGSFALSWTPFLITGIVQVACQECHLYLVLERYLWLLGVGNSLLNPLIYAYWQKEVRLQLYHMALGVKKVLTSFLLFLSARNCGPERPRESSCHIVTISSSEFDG

In this assay the target is human GPR119 (Homo sapiens (Human), UniProt Q8TDV5). The experiment in a line: AlphaScreen cAMP assay in Min-6/hGPR119 cells (GPR119 activation, intracellular cAMP). Type of assay: cell-based. The following applies: MIN6 cells stably transfected with human GPR119; 45 minutes' incubation at RT; AlphaScreen cAMP Assay Kit. Summed up:
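cAMP quantified by AlphaScreen after 45 min room-temperature compound exposure in HEPES/bicarbonate buffer, pH 7.4, containing 0.5 mM IBMX, 0.1% BSA and 1% DMSO final. Cells were Min-6 stably transfected with human GPR119, seeded 24 h beforehand.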
For orientation: Bead proximity is the source of the signal in Alpha formats.
As to `CCC1CC(=O)NN=C1c1ccc2nc(-c3cccc(OCCN4CCN(C(=O)OC(C)(C)C)CC4)c3)oc2c1` (stereo not shown) [Example 155, tert-butyl 4-(2-{3-[6-(4-ethyl-6-oxo-1,4,5,6-tetrahydro-pyridazin-3-yl)-benzoxazol-2-yl]-phenoxy}-ethyl)-piperazine-1-carboxylate], the midpoint of the response, the EC50, lay at 7.75 µM.
In the case of `CCC1CC(=O)NN=C1c1ccc2nc(-c3ccc(OCC4CCN(C(=O)OC(C)(C)C)CC4)cc3)oc2c1` (stereo not shown) [Example 67, tert-butyl 4-{4-[6-(4-ethyl-6-oxo-1,4,5,6-tetrahydro-pyridazin-3-yl)-benzoxazol-2-yl]-phenoxymethyl}-piperidine-1-carboxylate], the midpoint of the response, the EC50, lay at 0.051 µM.
On to `CC[C@@H]1CC(=O)NN=C1c1ccc2nc(-c3ccc(OC(C)C)cc3)oc2c1` [Example 193, (R)-5-ethyl-6-[2-(4-isopropoxy-phenyl)-benzoxazol-6-yl]-4,5-dihydro-2H-pyridazin-3-one], for which the EC50 was 0.03 µM.
Next, `Cc1ccc(-c2nc3ccc(C4=NNC(=O)[C@@H](C)[C@H]4C)cc3o2)s1` [Example 24, (4S,5R)-4,5-dimethyl-6-[2-(5-methyl-thiophen-2-yl)-benzoxazol-6-yl]-4,5-dihydro-2H-pyridazin-3-one]: 5.1 µM.
Compound `COC(=O)c1cccc(-c2nc3ccc(-c4n[nH]c(=O)cc4C)cc3o2)c1` [Example 254, methyl 3-[6-(4-methyl-6-oxo-1,6-dihydro-pyridazin-3-yl)-benzoxazol-2-yl]-benzoate] yielded an EC50 of 8.95 µM.
Next, `CCC1CC(=O)NN=C1c1ccc2nc(-c3ccc(OCCN4CCN(C(C)C)CC4)cc3)oc2c1` (stereo not shown) [Example 168, 5-ethyl-6-(2-{4-[2-(4-isopropyl-piperazin-1-yl)-ethoxy]-phenyl}-benzoxazol-6-yl)-4,5-dihydro-2H-pyridazin-3-one]: 3.01 µM; `CCC1CC(=O)NN=C1c1ccc2nc(-c3cccc(OC(C)CN4CCCCC4)c3)oc2c1` (stereo not shown) [Example 230, 5-ethyl-6-{2-[3-(1-methyl-2-piperidin-1-yl-ethoxy)-phenyl]-benzoxazol-6-yl}-4,5-dihydro-2H-pyridazin-3-one]: 1.19 µM; `CCC1CC(=O)NN=C1c1ccc2nc(-c3ccc(OC(C)(C)CN4CCCC4)cc3)oc2c1` (stereo not shown) [Example 228, 6-{2-[4-(1,1-dimethyl-2-pyrrolidin-1-yl-ethoxy)-phenyl]-benzoxazol-6-yl}-5-ethyl-4,5-dihydro-2H-pyridazin-3-one]: 0.549 µM.
Next, `CCC1CC(=O)NN=C1c1ccc2nc(-c3ccc(N4CCOCC4)cc3)oc2c1` (stereo not shown) [Example 177, 5-ethyl-6-[2-(4-morpholin-4-yl-phenyl)-benzoxazol-6-yl]-4,5-dihydro-2H-pyridazin-3-one]: 0.134 µM; `CC[C@@H]1CC(=O)NN=C1c1ccc2nc(-c3ccc(OCCN(C(C)C)C(C)C)cc3)oc2c1` [Example 259, (R)-6-{2-[4-(2-diisopropylamino-ethoxy)-phenyl]-benzoxazol-6-yl}-5-ethyl-4,5-dihydro-2H-pyridazin-3-one]: 0.022 µM; `O=C1NN=C([C@H]2CCc3nc(-c4ccccc4)oc3C2)[C@@H]2C[C@H]12` [Example 133, (1S,6R)-5-((S)-2-phenyl-4,5,6,7-tetrahydro-benzoxazol-6-yl)-3,4-diaza-bicyclo[4.1.0]hept-4-en-2-one]: 0.3 µM.
For the compound `CCC[C@H]1C(=O)NN=C(c2ccc3nc(-c4ccc(F)cc4)oc3c2)[C@@H]1C` (relative stereo) [Example 182, trans-6-[2-(4-fluoro-phenyl)-benzoxazol-6-yl]-5-methyl-4-propyl-4,5-dihydro-2H-pyridazin-3-one], a half-maximal effect (EC50) was put at 0.116 µM.
In turn, `CCC1CC(=O)NN=C1c1ccc2nc(-c3cccc(OCCN(C)C(C)C)c3)oc2c1` (stereo not shown) [Example 217] registered an EC50 of 2.41 µM.
On to `CCC1CC(=O)NN=C1c1ccc2nc(-c3cccc(OCCN4CCC(C#N)CC4)c3)oc2c1` (stereo not shown) [Example 153, 1-(2-{3-[6-(4-ethyl-6-oxo-1,4,5,6-tetrahydro-pyridazin-3-yl)-benzoxazol-2-yl]-phenoxy}-ethyl)-piperidine-4-carbonitrile], for which the EC50 worked out at 0.735 µM.
In the case of `CCC1CC(=O)NN=C1c1ccc2nc(-c3cccc(OCCN4C(C)(C)CCCC4(C)C)c3)oc2c1` (stereo not shown) [Example 151, 5-ethyl-6-(2-{3-[2-(2,2,6,6-tetramethyl-piperidin-1-yl)-ethoxy]-phenyl}-benzoxazol-6-yl)-4,5-dihydro-2H-pyridazin-3-one], the EC50 turned out to be 0.116 µM.
`CCC1CC(=O)NN=C1c1ccc2nc(-c3ccc(OCc4ccccc4)cc3)oc2c1` (stereo not shown) [Example 33, 6-[2-(4-benzyloxy-phenyl)-benzoxazol-6-yl]-5-ethyl-4,5-dihydro-2H-pyridazin-3-one] showed an EC50 of 0.07 µM.
Consider `CCC1CC(=O)NN=C1c1ccc2nc(-c3ccc(OC(C)CN4CCOCC4)cc3)oc2c1` (stereo not shown) [Example 221, 5-ethyl-6-{2-[4-(1-methyl-2-morpholin-4-yl-ethoxy)-phenyl]-benzoxazol-6-yl}-4,5-dihydro-2H-pyridazin-3-one], for which the response was half-maximal at 0.204 µM (EC50).
In turn, `Cc1ccc(-c2nc3ccc(C4=NNC(=O)C5CC45)cc3o2)cc1C` (stereo not shown) [Example 14, 5-[2-(3,4-dimethyl-phenyl)-benzoxazol-6-yl]-3,4-diaza-bicyclo[4.1.0]hept-4-en-2-one] came in with an EC50 of 0.264 µM.
The compound `CCC[C@H]1C(=O)NN=C(c2ccc3nc(-c4ccccc4)oc3c2)[C@H]1C` (relative stereo) [Example 129, cis-5-methyl-6-(2-phenyl-benzoxazol-6-yl)-4-propyl-4,5-dihydro-2H-pyridazin-3-one] showed an EC50 of 6.72 µM.
The value for `O=C1NN=C([C@H]2CCc3nc(-c4ccccc4)oc3C2)[C@H]2C[C@@H]12` [Example 131, (1R,6S)-5-((S)-2-phenyl-4,5,6,7-tetrahydro-benzoxazol-6-yl)-3,4-diaza-bicyclo[4.1.0]hept-4-en-2-one] was 7.71 µM.
Turning to `CC1CC(=O)NN=C1c1ccc2nc(-c3ccccc3Cl)oc2c1` (stereo not shown) [Example 89, 6-[2-(2-chloro-phenyl)-benzoxazol-6-yl]-5-methyl-4,5-dihydro-2H-pyridazin-3-one], the response was half-maximal at 0.415 µM (EC50).
`CCC1CC(=O)NN=C1c1ccc2nc(-c3ccc(OCC(C)O)cc3)oc2c1` (stereo not shown) [Example 211, 5-ethyl-6-{2-[4-(2-hydroxy-propoxy)-phenyl]-benzoxazol-6-yl}-4,5-dihydro-2H-pyridazin-3-one]: a half-maximal effect (EC50) was put at 0.395 µM.
Next, `CCC1CC(=O)NN=C1c1ccc2nc(-c3cccc(OCCN4CCCC4)c3)oc2c1` (stereo not shown) [Example 201, 5-ethyl-6-{2-[3-(2-pyrrolidin-1-yl-ethoxy)-phenyl]-benzoxazol-6-yl}-4.5-dihydro-2H-pyridazin-3-one]: 3.03 µM; `CCC1CC(=O)NN=C1c1ccc2nc(-c3ccc(OCCN4CCSCC4)cc3)oc2c1` (stereo not shown) [Example 247, 5-ethyl-6-{2-[4-(2-thiomorpholin-4-yl-ethoxy)-phenyl]-benzoxazol-6-yl}-4,5-dihydro-2H-pyridazin-3-one]: 0.062 µM.
In turn, `CCC1CC(=O)NN=C1c1ccc2nc(-c3ccc(OCc4ccsc4)cc3)oc2c1` (stereo not shown) [Example 48, 5-ethyl-6-{2-[4-(thiophen-3-ylmethoxy)-phenyl]-benzoxazol-6-yl}-4,5-dihydro-2H-pyridazin-3-one] had an EC50 of 0.348 µM.

What is called EC50 is the concentration giving half of the maximal effect. A higher EC50 goes with a need for much substance.

The values above are taken from patent publication US8772323B2, “Benzoxazole- and tetrahydrobenzoxazole-substituted pyridazinones as GPR119 agonists” (Boehringer Ingelheim International GmbH, priority 2010, dated 2014).
